Laboratory results from paper PMC12321279, “Novel 4,5‐Dihydrothiazole‐Phenylpiperazine Derivatives: Synthesis, Docking Studies and Pharmacological Evaluation as Serotonergic Agents” (Chemmedchem, 2025).

How the values were obtained:
[1] = biological target: T1, 5‐HT1A receptor (Rattus norvegicus, UniProt P19327); assay: 5‐HT1A receptor activation in the [35S]GTP‐γ‐S assay (hippocampal membranes); assay type: biochemical; settings: [35S]GTPγS; for EC50: read-out: EC50 (95% CI, μM), 5‐HT1A receptor G‐protein stimulation
T1 construct: 80 μg of hippocampal membrane suspension (the 5‐HT1A assay); from tissue; host or cells: rat (Sprague-Dawley) hippocampus membranes
T1 sequence (P19327 1-422): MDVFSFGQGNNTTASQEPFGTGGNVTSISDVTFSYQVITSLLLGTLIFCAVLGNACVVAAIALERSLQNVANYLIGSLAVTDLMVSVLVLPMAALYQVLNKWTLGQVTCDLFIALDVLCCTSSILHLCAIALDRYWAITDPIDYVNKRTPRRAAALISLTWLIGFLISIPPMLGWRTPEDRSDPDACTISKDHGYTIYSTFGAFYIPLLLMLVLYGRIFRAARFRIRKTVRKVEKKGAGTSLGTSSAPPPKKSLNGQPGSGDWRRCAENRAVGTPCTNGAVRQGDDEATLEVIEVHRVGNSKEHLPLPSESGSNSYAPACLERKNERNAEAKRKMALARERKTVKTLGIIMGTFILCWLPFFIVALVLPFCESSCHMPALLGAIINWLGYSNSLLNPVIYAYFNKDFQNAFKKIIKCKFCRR
Protocol: Seven compound concentrations equally spaced on a log scale (10–4 M to 10–10 M) were incubated in duplicate with hippocampal membrane preparations (5μg per well) in assay buffer (50 mM Tris‐HCl, pH = 7.4, 1 mM EGTA, 3 mM MgCl2, 100 mM NaCl, and 30 μM GDP) and 0.08 nM [^35S]GTP‐γ‐S (specific activity: 1250 Ci mmole^−1, Revvity). Nonspecific binding was determined with 10μM of unlabeled GTP‐γ‐S. The final DMSO concentration in the assay was 5%. The reaction mixture was incubated for 90 min. at 30 °C on an orbital shaker set at 250 rpm. Next, the reaction mixture was deposited under vacuum with the FilterMate Harvester (Revvity, USA) onto Unifilter GF/C Plates (Revvity, MA, USA) presoaked with wash buffer (50 mM Tris‐HCl, pH = 7.4). The wells were then rapidly washed with 2 mL of wash buffer. Filter plates were dried overnight at room temperature. Once completely dry, 35 μl of MicroScint PS (Revvity, MA, USA) scintillation fluid was added to each well. Radioactivity was counted in a MicroBeta2 LumiJet scintillation counter (Revvity, MA, USA). Data were analyzed with GraphPad Prism 5.0 software (GraphPad Software, San Diego California USA, www.graphpad.com). The curves were fitted with three‐parameter non‐linear regression model.

[2] = biological target: T2, 5‐HT2A receptor (Rattus norvegicus, UniProt P14842); assay: Inhibition of 5‐HT‐evoked contractions in isolated rat ileum; design: segments (1–1.5 cm) of ileum were removed, flushed of luminal contents, and placed in Krebs solution; from tissue; host or cells: isolated rat (Sprague-Dawley) ileum segments; settings: 5‐HT 10^−5 M, compounds 10^−8–10^−5 M; for IC50: IC50, inhibition of 5‐HT‐induced contractions in the rat ileum, contact time 10 min; for Emax: read-out: EMAX, maximal inhibitory effect on 5‐HT‐induced contractions in the rat ileum
Protocol: Male rats (Sprague‐Dawley, 160–200 g; Charles River Laboratories; Calco, Italy) were manipulated and cared for in strict compliance with the principles of laboratory animal care. Experimental procedures were conducted in conformity with Italian (D.L. 26/2014) and European (directive 2010/63/EU) regulations on the protection of animals used for scientific purposes and approved by the Italian Ministry. Animal housing complied with recent pharmacological guidance.^[ [40] ^] All animals weighing 160–200 g were used after a 1‐week acclimation period (temperature 23 ± 2 °C; humidity 60%, free access to water and standard food).
The segments were prepared as previously described:^[ [41] ^] the segments were set up in such a way as to record contractions mainly from the longitudinal axis, in an organ bath containing 20 mL of Krebs solution, bubbled with 95% O2 and 5% CO2 and maintained at 37 °C. The tissues were connected to an isotonic transducer (load: 0.5 g), connected to Power Lab system (Ugo Basile, Comerio, Italy). Ileal segments were equilibrated for 60 min^[ [16] ^] followed by three repeated additions of submaximal concentration of 5‐HT (10^−5 M) in order to record stable control contractions. […] The contact time for each concentration was 10 min. The compounds were dissolved in DMSO. […] Results are expressed as mean (SEM). […] The IC50 and Emax values were calculated with the aid of a computer program (GraphPad Prism 5).

[3] = biological target: T3, 5‐HT2C receptor (Rattus norvegicus, UniProt P08909); assay: 5‐HT2C competition binding assay ([3H]mesulergine, frontal cortex membranes); settings: 5 nM [3H]mesulergine, 95% CI in brackets, read-out: 5‐HT2C Ki (95% CI)
T3 construct: 10 μM pargyline and 160μg of the frontal cortex membrane suspension; from tissue; host or cells: rat (Sprague-Dawley) frontal cortex membranes
T3 sequence (P08909 33-460): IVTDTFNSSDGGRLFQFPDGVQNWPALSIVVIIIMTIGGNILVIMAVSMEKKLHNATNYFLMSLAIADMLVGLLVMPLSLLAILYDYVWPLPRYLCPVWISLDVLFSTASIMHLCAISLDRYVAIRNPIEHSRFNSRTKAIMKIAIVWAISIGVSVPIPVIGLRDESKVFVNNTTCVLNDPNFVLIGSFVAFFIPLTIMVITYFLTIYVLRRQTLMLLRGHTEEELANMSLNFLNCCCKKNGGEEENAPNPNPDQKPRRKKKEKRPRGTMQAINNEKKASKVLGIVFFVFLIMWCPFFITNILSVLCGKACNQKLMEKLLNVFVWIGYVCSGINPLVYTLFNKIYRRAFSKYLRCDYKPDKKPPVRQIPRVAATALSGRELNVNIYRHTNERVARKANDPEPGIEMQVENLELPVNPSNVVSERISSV
Protocol: (§1) Sprague‐Dawley rats were sacrificed by isoflurane overdose. Brains were rapidly removed and placed on ice. Hippocampi (for the 5‐HT1A assay) and frontal cortices (for the 5‐HT2A and 5‐HT2C assays) were dissected on a Petri dish. The tissue from 10 rats was homogenized in 30 vol. homogenization buffer (50 mM Tris–HCl, […], 1 mM EDTA, 1 mM dithiothreitol) with a handheld Teflon‐glass homogenizer. The homogenate was centrifuged at 48,000 × g at 4 °C for 15 min. The pellet was suspended and homogenized in the homogenization buffer and incubated for 10 min. at 36 °C. The centrifugation and suspension steps were repeated twice. The final pellet was homogenized in 5 vol. 50 mM Tris–HCl, pH = 7.4 buffer and stored at −80 °C for no longer than 6 months. […] For the 5‐HT2C assay, compounds were incubated in duplicate with 5 nM [^3H]mesulergine (specific activity: 80.2 Ci mmol^−1, Revvity, MA, USA) for 60 min. at 36 °C in a 50 mM Tris‐HCl (pH 7.4) buffer, supplemented with 5 mM MgCl2, 140 mM NaCl, 1 mM DTT, 1 mM CaCl2, 10 μM pargyline and 160μg of the frontal cortex membrane suspension. Non‐specific binding was determined with 10μM serotonin. The final DMSO concentration in the assay was 5%. After incubation, the reaction mixture was deposited onto Unifilter GF/C plates (Revvity, MA, USA) presoaked in 0.4% PEI (or 0.4% PEI and 0.5% Triton X‐100 for the 5‐HT2C assay) for 1 h with the FilterMate‐96 Harvester (Revvity, MA, USA). Then, each well was washed with 2 mL of 50 mM Tris–HCl (pH 7.4) buffer to separate bound ligands from free and the plates were left to dry overnight. Then, 35μl of Microscint‐20 scintillation fluid (Revvity, MA, USA) was added to each filter well and left to equilibrate for 2h. Filter‐bound radioactivity was counted in a MicroBeta2 LumiJet scintillation counter (Revvity, MA, USA). Binding curves were fitted with one site non‐linear regression. Binding affinity (pKi and Ki) for each compound was calculated from the […] values with the Cheng‐Prusoff equation from two separate experiments.

[4] = biological target: T2, 5‐HT2A receptor; assay: 5‐HT2A competition binding assay ([3H]ketanserin, frontal cortex membranes); design: from tissue; host or cells: rat (Sprague-Dawley) frontal cortex membranes; settings: 1 nM [3H]ketanserin, 95% CI in brackets, read-out: 5‐HT2A Ki (95% CI)
[5] = biological target: T1, 5‐HT1A receptor; assay: 5‐HT1A competition binding assay ([3H]8‐OH‐DPAT, hippocampal membranes); settings: 1 nM [3H]8‐OH‐DPAT, 95% CI in brackets, read-out: 5‐HT1A Ki (95% CI)
Protocol: as §1

[6] = rat hippocampal membranes, 95% CI in brackets

T2 sequence (P14842 whole entry): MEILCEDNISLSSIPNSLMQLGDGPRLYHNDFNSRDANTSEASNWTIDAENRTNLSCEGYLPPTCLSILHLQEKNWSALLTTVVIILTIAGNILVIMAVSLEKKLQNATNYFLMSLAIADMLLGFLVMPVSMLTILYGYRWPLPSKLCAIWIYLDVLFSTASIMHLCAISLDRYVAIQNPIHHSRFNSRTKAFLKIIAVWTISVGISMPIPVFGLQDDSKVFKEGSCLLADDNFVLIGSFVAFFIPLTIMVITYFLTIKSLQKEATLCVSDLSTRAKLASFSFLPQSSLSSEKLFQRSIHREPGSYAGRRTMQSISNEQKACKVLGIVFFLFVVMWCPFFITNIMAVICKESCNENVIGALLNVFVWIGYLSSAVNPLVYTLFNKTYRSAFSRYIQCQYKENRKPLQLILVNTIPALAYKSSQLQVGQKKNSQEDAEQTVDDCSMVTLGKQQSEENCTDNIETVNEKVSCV

Row | SMILES | EC50 [1, 6] | Emax ([1]; rat hippocampal membranes, read-out: Emax (%) ± SEM, 5‐HT1A receptor G‐protein stimulation) | EMAX, maximal inhibitory effect on 5‐HT‐induced contractions in the rat ileum [2] | IC50 [2] | Ki [3] | Ki [4] | Ki [5] | Emax (%) ± SEM, 5‐HT1A receptor G‐protein stimulation ([1]; rat hippocampal membranes) | pEC50, 5‐HT1A receptor G‐protein stimulation ([1]; rat hippocampal membranes) | EC50 (95% CI, μM), 5‐HT1A receptor G‐protein stimulation [1, 6] | agonist activity for the 5‐HT1A receptor (classification in words) ([1]; efficacy compared with 8‐OH‐DPAT) | Emax [2]
1 | O=C(NCCCN1CCN(c2cccc(C3=NCCS3)c2)CC1)C1CC2C=CC1C2 (stereo not drawn) [FG‐14, Exo‐N‐(3‐(4‐(3‐(4,5‐dihydrothiazol‐2‐yl)phenyl)piperazin‐1‐yl)propyl) bicyclo [2.2.1] hept‐5‐ene‐2‐carboxamide] | 23.3 µM | 133 ± 5.7% | 22.48% | 2590 nM | 72 nM | 430 nM | 340 nM |  |  |  |  | 
2 | O=C1C2C3C=CC(O3)C2C(=O)N1OCCCN1CCN(c2cccc(C3=NCCS3)c2)CC1 (centres unmarked) [FG‐11, 2‐(3‐(4‐(3‐(4,5‐dihydrothiazol‐2‐yl) phenyl) piperazin‐1‐yl) propoxy)‐3a,4,7,7a‐tetrahydro‐1H‐4,7‐epoxyisoindole‐1,3(2H)‐dione] |  |  |  | 4390 nM | 40500 nM | 1480 nM | 2200 nM | No activity | No activity | No activity | do not express any agonist activity | 28.7%
3 | O=C(NCCCN1CCN(c2cccc(C3=NCCS3)c2)CC1)C1CC2C=CC1C2 (stereo not drawn) [FG‐17, Endo‐N‐(3‐(4‐(3‐(4,5‐dihydrothiazol‐2‐yl)phenyl)piperazin‐1‐yl)propyl) bicyclo[2.2.1]hept‐5‐ene‐2‐carboxamide] | 21.1 µM |  |  | 1250 nM | 1660 nM | 6060 nM | 823 nM | 134 ± 2.5% |  |  |  | 25%
